Laboratory results from BindingDB's records for PubMed 9226416 (University of Sydney, 1997).

How the values were obtained:
[1] = molecular target: T1, Gamma-aminobutyric acid receptor subunit alpha-3 (Homo sapiens, UniProt P34903)
T1 sequence (P34903 whole entry): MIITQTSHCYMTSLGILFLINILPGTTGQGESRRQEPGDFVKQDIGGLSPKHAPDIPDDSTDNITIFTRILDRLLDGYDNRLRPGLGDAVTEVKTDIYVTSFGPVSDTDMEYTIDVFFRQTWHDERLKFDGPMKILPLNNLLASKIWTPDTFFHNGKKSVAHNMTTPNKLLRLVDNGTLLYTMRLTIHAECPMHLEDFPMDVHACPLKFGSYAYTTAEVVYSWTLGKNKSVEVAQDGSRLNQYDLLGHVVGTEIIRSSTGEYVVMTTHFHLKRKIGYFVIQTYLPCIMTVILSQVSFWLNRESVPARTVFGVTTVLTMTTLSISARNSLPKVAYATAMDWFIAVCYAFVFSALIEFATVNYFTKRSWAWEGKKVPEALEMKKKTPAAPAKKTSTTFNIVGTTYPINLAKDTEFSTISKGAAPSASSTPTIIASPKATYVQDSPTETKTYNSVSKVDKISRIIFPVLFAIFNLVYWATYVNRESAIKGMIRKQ

[2] = molecular target: Gamma-aminobutyric acid (GABA) B receptor 1 (Rattus norvegicus, UniProt Q6MFX8)
Chain of Gamma-aminobutyric acid (GABA) B receptor 1 (Q6MFX8 whole entry): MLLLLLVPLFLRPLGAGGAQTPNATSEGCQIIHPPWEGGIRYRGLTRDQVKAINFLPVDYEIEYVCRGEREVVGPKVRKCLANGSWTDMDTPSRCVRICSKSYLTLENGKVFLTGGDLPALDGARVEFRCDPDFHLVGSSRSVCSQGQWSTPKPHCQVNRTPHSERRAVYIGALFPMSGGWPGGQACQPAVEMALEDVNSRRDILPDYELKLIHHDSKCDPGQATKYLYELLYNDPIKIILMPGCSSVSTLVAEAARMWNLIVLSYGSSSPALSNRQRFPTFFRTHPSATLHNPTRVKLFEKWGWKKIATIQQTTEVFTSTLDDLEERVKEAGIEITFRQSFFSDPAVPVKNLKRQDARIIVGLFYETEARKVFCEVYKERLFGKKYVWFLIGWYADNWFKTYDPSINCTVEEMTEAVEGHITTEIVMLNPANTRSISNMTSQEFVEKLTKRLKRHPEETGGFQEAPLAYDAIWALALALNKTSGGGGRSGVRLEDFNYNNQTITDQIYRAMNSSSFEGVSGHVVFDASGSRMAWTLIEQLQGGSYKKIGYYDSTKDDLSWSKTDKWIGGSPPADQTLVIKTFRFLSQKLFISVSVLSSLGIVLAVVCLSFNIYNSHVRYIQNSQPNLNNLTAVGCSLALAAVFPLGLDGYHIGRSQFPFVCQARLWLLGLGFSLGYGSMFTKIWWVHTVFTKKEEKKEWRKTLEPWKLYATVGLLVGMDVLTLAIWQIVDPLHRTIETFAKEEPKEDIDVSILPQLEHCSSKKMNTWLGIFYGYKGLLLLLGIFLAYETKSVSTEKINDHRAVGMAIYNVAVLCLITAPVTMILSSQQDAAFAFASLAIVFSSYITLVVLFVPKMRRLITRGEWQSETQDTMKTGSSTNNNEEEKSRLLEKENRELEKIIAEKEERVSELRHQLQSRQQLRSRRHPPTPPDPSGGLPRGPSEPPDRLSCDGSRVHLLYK

SMILES | Ki [1] | Ki [2]
NCCC[PH](=O)O [(3-aminopropyl)phosphinic acid] | 2470 nM | 5 nM
CP(=O)(O)CCCN [CGP35024] | 750 nM | –
CCCCP(=O)(O)CCCN [CGP36742] | > 10000 nM | –
